The source of these data is patent publication US8088814B2, “Methods and compositions for the treatment of psychiatric disorders” (priority 2001, dated 2012).

In one series the test system is schizophrenic patients. Here is the method:
The statistics were performed according to the criterion of “last observation carried forward” (LOCF), i.e., the last PANSS scores of the patients who dropped out before the end of the study were carried forward to all subsequent observation days. For the comparison of the main efficacy parameter, the mean change in the PANSS between the two treatment groups, t-tests for independent samples were employed. […] For all other comparisons, two-tailed t-tests were used.

Where two headings read alike, the source gives them in different places.

As for `Cc1nc2n(c(=O)c1CCN1CCC(c3noc4cc(F)ccc34)CC1)CCCC2O` (stereo not drawn) [9-OH-risperidone], under “human, in vivo”, the “differences in the plasma levels between risperidone-celecoxib and risperidone-placebo treatment” value is given as “without statistical significance”.

`Cc1ccc(-c2cc(C(F)(F)F)nn2-c2ccc(S(N)(=O)=O)cc2)cc1` [celecoxib]: in the series on schizophrenic patients (add-on celecoxib therapy in schizophrenic patients), the “treatment of depressive states” value is “useful”. In addition, the “PANSS items lack of contact, emotional isolation, passive-apathic isolation, social withdrawal, depression, motor retardation” value with schizophrenic patients (detailed item analysis, good celecoxib-responders vs placebo group, add-on to risperidone) is “therapeutic effects”. The “factor analysis: items subsumed under the label agitation” value in the series with schizophrenic patients (response to celecoxib but not to placebo, add-on to risperidone) is given as “good therapeutic response”.

Take risperidone [placebo and risperidone]: the “differences in the plasma levels between risperidone-celecoxib and risperidone-placebo treatment” value (plasma, during the study (FIG. 4)) is given as “without statistical significance”. The PANSS global score in the series with schizophrenic patients (at the start of the study) stood at 37.2±7.1. In the series with schizophrenic patients (at the start of the study), this compound came in with a PANSS negative score of 21.1±5.5. For the same compound, the PANSS total score in the series on schizophrenic patients (at the start of the study) turned out to be 75.4±12.9. The PANSS positive score with schizophrenic patients (week 0 (start of the study), mean ± SD, 25 patients per group) came out at 17.2 ± 4.6; in the series with schizophrenic patients (week 0 (start of the study), mean ± SD, 25 patients per group, listed as risperidone-placebo) it was 17.2±4.6; with schizophrenic patients (week 1, LOCF) it was 16.2 ± 4.6; with schizophrenic patients (week 2, LOCF), 15 ± 4.5; in the series on schizophrenic patients (week 3, LOCF), 14.5 ± 4.6; with schizophrenic patients (week 4, LOCF) it was 14.2 ± 4.4. Besides, the PANSS positive score with schizophrenic patients (week 5, LOCF) was found to be 13.3 ± 4.4.
